Source: PubChem BioAssay (NCI)
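Tested at 5 concentrations; 48 h exposure; 96-well plates; endpoints linearly interpolated, else capped at highest concentration. Definition used: TGI = concentration required for complete inhibition of growth.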

Tests used:
Experiment in all cases: DTP human tumour cell line panel, 48 h
[1] = test system: HT29 colon
[2] = test system: TK-10 renal
[3] = test system: NCI-H522 lung
[4] = test system: M14 melanoma
[5] = test system: MDA-MB-435
[6] = test system: MOLT-4 leukemia
[7] = test system: UO-31 renal
[8] = test system: KM12 colon
[9] = test system: HCT-116 colon
[10] = test system: MCF7 breast

COc1ccc(/C=N/n2c(-c3ccccc3)n[nH]c2=O)c(OC)c1
TGI [1]: 76.3 µM | TGI [2]: > 71.5 µM | TGI [3]: > 74.3 µM | TGI [4]: > 100 µM | TGI [5]: > 100 µM | TGI [6]: > 100 µM | TGI [7]: > 70 µM | TGI [8]: > 100 µM | TGI [9]: > 100 µM | TGI [10]: > 100 µM

CN1N=C(c2ccncc2)OC1c1ccc(C(F)(F)F)cc1 (stereo not given)
TGI [1]: > 100 µM | TGI [2]: > 100 µM | TGI [3]: > 100 µM | TGI [4]: > 100 µM | TGI [5]: > 100 µM | TGI [6]: > 100 µM | TGI [7]: > 100 µM | TGI [8]: > 100 µM | TGI [9]: > 100 µM | TGI [10]: > 100 µM

Cc1ccc([N+](=O)[O-])cc1S(=O)(=O)Nc1ccc(C2=NN(S(=O)(=O)c3cc([N+](=O)[O-])ccc3C)C(c3ccccc3O)C2)cc1 (stereo not given)
TGI [1]: > 100 µM | TGI [2]: > 100 µM | TGI [3]: > 100 µM | TGI [4]: > 100 µM | TGI [5]: > 100 µM | TGI [6]: > 100 µM | TGI [7]: > 100 µM | TGI [8]: > 100 µM | TGI [9]: > 100 µM | TGI [10]: > 100 µM

Cc1c(CCCl)c(Cl)n2c(nc3ccccc32)c1C#N
TGI [1]: 4.35 µM | TGI [2]: 3.84 µM | TGI [3]: 1.46 µM | TGI [4]: 3.06 µM | TGI [5]: 2.22 µM | TGI [6]: 0.653 µM | TGI [7]: 2.56 µM | TGI [8]: 2.54 µM | TGI [9]: 0.891 µM | TGI [10]: 5.28 µM

CN(CCNC(=O)c1nn(C)c2c1Cc1ccccc1-2)CCNC(=O)c1nn(C)c2c1Cc1ccccc1-2
TGI [1]: 33.5 µM | TGI [2]: 29.6 µM | TGI [3]: 30 µM | TGI [4]: 26.5 µM | TGI [5]: 31.1 µM | TGI [6]: 31.2 µM | TGI [7]: 24.2 µM | TGI [8]: 43.7 µM | TGI [9]: 28.9 µM | TGI [10]: 26 µM

CC(C)C1OC(=O)C(Cc2ccccc2)N(C)C(=O)C(C(C)C)OC(=O)C(Cc2ccccc2)N(C)C(=O)C(C(C)C)OC(=O)C(Cc2ccccc2)N(C)C1=O (stereo not given)
TGI [1]: 2.07 µM | TGI [2]: 2.12 µM | TGI [3]: 2.12 µM | TGI [4]: 2.03 µM | TGI [5]: 1.41 µM | TGI [6]: 2.33 µM | TGI [7]: 1.27 µM | TGI [8]: 1.33 µM | TGI [9]: 2.36 µM | TGI [10]: 1.79 µM

CC[C@@]1(O)C(=O)OCc2c1cc1n(c2=O)Cc2c-1nc1ccc(N)cc1c2CC[Si](C)(C)C
TGI [1]: 11.6 µM | TGI [2]: 3.88 µM | TGI [3]: 0.127 µM | TGI [4]: < 0.0499 µM | TGI [5]: 4.54 µM | TGI [6]: < 0.01 µM | TGI [7]: < 0.0173 µM | TGI [8]: 3.68 µM | TGI [9]: 2.01 µM | TGI [10]: 0.39 µM

CCOC(=O)c1cccc(N=NNc2cccc(C(=O)OCC)c2)c1
TGI [1]: > 100 µM | TGI [2]: > 100 µM | TGI [3]: 84.3 µM | TGI [4]: > 100 µM | TGI [5]: > 100 µM | TGI [6]: > 100 µM | TGI [7]: 45.6 µM | TGI [8]: > 100 µM | TGI [9]: > 100 µM | TGI [10]: > 100 µM

COC(=O)c1sc2c(c1C(=O)OC)C(=Nc1ccc(OC)cc1)SC2=Nc1ccc(OC)cc1
TGI [1]: 1.73 µM | TGI [2]: 3.01 µM | TGI [3]: 2.45 µM | TGI [4]: 3 µM | TGI [5]: 1.94 µM | TGI [6]: 0.494 µM | TGI [7]: 2.11 µM | TGI [8]: 3.03 µM | TGI [9]: 1.58 µM | TGI [10]: 2.47 µM

COc1ccc(Cl)cc1NC(=O)O/N=C(\Cl)C(C)C
TGI [1]: 43.8 µM | TGI [2]: 6.93 µM | TGI [3]: 2.46 µM | TGI [4]: 13 µM | TGI [5]: 47.6 µM | TGI [6]: 6.11 µM | TGI [7]: 28.5 µM | TGI [8]: 35.5 µM | TGI [9]: 45.5 µM | TGI [10]: 38.6 µM

COc1cc2c(cc1C)NC(=O)/C2=C/c1c(Cl)[nH]c2ccccc12
TGI [1]: 14.4 µM | TGI [2]: 22.1 µM | TGI [3]: 20.5 µM | TGI [4]: 13.3 µM | TGI [5]: 4.13 µM | TGI [6]: 31.3 µM | TGI [7]: 25.8 µM | TGI [8]: 16.9 µM | TGI [9]: 17 µM | TGI [10]: 16.1 µM

Clc1ccc(Cc2nc3cc(Cl)c(Cl)cc3n2CC2CCCN3CCCCC23)cc1 (stereo not given)
TGI [1]: 13.1 µM | TGI [2]: 27.7 µM | TGI [3]: 24.6 µM | TGI [4]: 7.95 µM | TGI [5]: 40.4 µM | TGI [6]: > 100 µM | TGI [7]: 1.6 µM | TGI [8]: 40 µM | TGI [9]: 21.8 µM | TGI [10]: 28.3 µM

N#CC1=C(N)OC2=C(CCCc3ccc([N+](=O)[O-])cc32)C1c1ccc(Cl)cc1 (stereo not given)
TGI [1]: > 100 µM | TGI [2]: > 100 µM | TGI [3]: 31.7 µM | TGI [4]: 49.8 µM | TGI [5]: 65.5 µM | TGI [6]: 93.1 µM | TGI [7]: > 100 µM | TGI [8]: > 100 µM | TGI [9]: 12.5 µM | TGI [10]: 22.6 µM

O=C1CC2(CCN(Cc3ccccc3)CC2)C(=O)N1N1CCCCC1
TGI [1]: > 100 µM | TGI [2]: > 100 µM | TGI [3]: > 100 µM | TGI [4]: > 100 µM | TGI [5]: > 100 µM | TGI [6]: > 100 µM | TGI [7]: > 100 µM | TGI [8]: > 100 µM | TGI [9]: > 100 µM | TGI [10]: > 100 µM

Cc1n[nH]c(=O)c2c3c([nH]c12)-c1ccccc1C3
TGI [1]: > 100 µM | TGI [2]: > 100 µM | TGI [3]: > 100 µM | TGI [4]: > 100 µM | TGI [5]: > 100 µM | TGI [6]: > 100 µM | TGI [7]: > 100 µM | TGI [8]: > 100 µM | TGI [9]: > 100 µM | TGI [10]: > 100 µM

CCCNC(=O)c1cc(OC)c(OC)cc1NC(=O)C12CC3CC(CC(C3)C1)C2
TGI [1]: 32.2 µM | TGI [2]: 31.3 µM | TGI [3]: 30 µM | TGI [4]: 28.5 µM | TGI [5]: 32.8 µM | TGI [6]: > 100 µM | TGI [7]: 30.1 µM | TGI [8]: 32 µM | TGI [9]: 30.4 µM | TGI [10]: 64.2 µM

CCc1nnc2sc(-c3ccc(-c4ccccc4[N+](=O)[O-])o3)nn12
TGI [1]: > 100 µM | TGI [2]: > 100 µM | TGI [3]: > 100 µM | TGI [4]: > 100 µM | TGI [5]: 49.8 µM | TGI [6]: 62.8 µM | TGI [7]: > 100 µM | TGI [8]: > 100 µM | TGI [9]: > 100 µM | TGI [10]: > 100 µM

O=C1c2cccc3cc([N+](=O)[O-])cc(c23)C(=O)N1c1ccc(OCCN2CCCC2)cc1
TGI [1]: 28.3 µM | TGI [2]: 81.3 µM | TGI [3]: 31.7 µM | TGI [4]: 47.1 µM | TGI [5]: 45.1 µM | TGI [6]: 56.7 µM | TGI [7]: 27.1 µM | TGI [8]: > 100 µM | TGI [9]: 46.7 µM | TGI [10]: 38.3 µM

O=[N+]([O-])C(/C=C(\Cl)[N+](=O)[O-])=C(N1CCOCC1)N1CCOCC1
TGI [1]: 83.1 µM | TGI [2]: > 100 µM | TGI [3]: > 100 µM | TGI [4]: > 100 µM | TGI [5]: > 100 µM | TGI [6]: > 100 µM | TGI [7]: 54 µM | TGI [8]: > 100 µM | TGI [9]: 62 µM | TGI [10]: 35.3 µM

O=C(OC1C#CCSCC#C/C=C\1)c1ccc2c(c1)C(=O)c1ccccc1C2=O (stereo not given)
TGI [1]: > 100 µM | TGI [2]: 80.6 µM | TGI [3]: 62.7 µM | TGI [4]: > 100 µM | TGI [5]: > 100 µM | TGI [6]: > 100 µM | TGI [7]: > 100 µM | TGI [8]: > 100 µM | TGI [9]: > 100 µM | TGI [10]: > 100 µM

O=c1[nH]nc(-c2cccc([N+](=O)[O-])c2)[nH]1
TGI [1]: > 100 µM | TGI [2]: > 100 µM | TGI [3]: > 100 µM | TGI [4]: > 100 µM | TGI [5]: > 100 µM | TGI [6]: > 100 µM | TGI [7]: > 100 µM | TGI [8]: > 100 µM | TGI [9]: > 100 µM | TGI [10]: > 100 µM

CCC(C)C(NC(=O)c1cccc2c(=O)c3ccccc3[nH]c12)C(=O)O (stereo not given)
TGI [1]: > 100 µM | TGI [2]: > 100 µM | TGI [3]: > 100 µM | TGI [4]: > 100 µM | TGI [5]: > 100 µM | TGI [6]: > 100 µM | TGI [7]: > 100 µM | TGI [8]: > 100 µM | TGI [9]: > 100 µM | TGI [10]: > 100 µM

Cc1ccc(NC(c2ccccc2)P(=O)(c2ccccc2)c2ccccc2)cc1 (stereo not given)
TGI [1]: > 100 µM | TGI [2]: > 100 µM | TGI [3]: > 100 µM | TGI [4]: > 100 µM | TGI [5]: > 100 µM | TGI [6]: > 100 µM | TGI [7]: > 100 µM | TGI [8]: > 100 µM | TGI [9]: > 100 µM | TGI [10]: > 100 µM

C=CCN(C(C)=O)c1cc(OCc2ccccc2)c2c(c1)c(C)cn2S(=O)(=O)c1ccccc1
TGI [1]: > 100 µM | TGI [2]: > 100 µM | TGI [3]: > 55.3 µM | TGI [4]: > 100 µM | TGI [5]: > 46.3 µM | TGI [6]: > 22 µM | TGI [7]: > 100 µM | TGI [8]: > 100 µM | TGI [9]: > 100 µM | TGI [10]: 31 µM

O=C1c2ccccc2CC12Cc1ccc3c(c1C2=O)CCCC3 (stereo not given)
TGI [1]: > 100 µM | TGI [2]: > 100 µM | TGI [3]: > 100 µM | TGI [4]: > 100 µM | TGI [5]: > 100 µM | TGI [6]: 12.5 µM | TGI [7]: > 100 µM | TGI [8]: > 100 µM | TGI [9]: > 100 µM | TGI [10]: > 100 µM

CC(C)=CC(=O)c1[nH]c2ccccc2c1CC(=O)NCCc1cnc[nH]1
TGI [1]: > 100 µM | TGI [2]: > 100 µM | TGI [3]: > 100 µM | TGI [4]: > 100 µM | TGI [5]: > 100 µM | TGI [6]: > 100 µM | TGI [7]: > 100 µM | TGI [8]: > 100 µM | TGI [9]: > 100 µM | TGI [10]: > 100 µM

C=CCCCCCCCCCOC1C=CC(O)C(CO)O1 (stereo not given)
TGI [1]: 46.4 µM | TGI [2]: > 100 µM | TGI [3]: > 100 µM | TGI [4]: 36 µM | TGI [5]: > 100 µM | TGI [6]: 86.7 µM | TGI [7]: > 100 µM | TGI [8]: 85.1 µM | TGI [9]: > 100 µM | TGI [10]: > 100 µM
